Experimental data published in ChEMBL document CHEMBL1148873, “Carbonic anhydrase inhibitors: the beta-carbonic anhydrase from Helicobacter pylori is a new target for sulfonamide and sulfamate inhibitors” (Bioorg Med Chem Lett, 2007).

Key:
[1] = tested on: Helicobacter pylori
Description: Inhibition of Helicobacter pylori alpha carbonic anhydrase by stopped-flow CO2 hydrase assay

[2] = tested on: Helicobacter pylori; remark: listed apart in the source
Description: Inhibition of Helicobacter pylori beta carbonic anhydrase by stopped-flow CO2 hydrase assay

[3] = target: Carbonic anhydrase 1 (Homo sapiens) (UniProt P00915)
Description: Inhibition of human carbonic anhydrase 1 by stopped-flow CO2 hydrase assay

[4] = target: Carbonic anhydrase 2 (Homo sapiens) (UniProt P00918)
Description: Inhibition of human carbonic anhydrase 2 by stopped-flow CO2 hydrase assay

Chain of Carbonic anhydrase 1 (Homo sapiens) (P00915 2-261 limits assumed): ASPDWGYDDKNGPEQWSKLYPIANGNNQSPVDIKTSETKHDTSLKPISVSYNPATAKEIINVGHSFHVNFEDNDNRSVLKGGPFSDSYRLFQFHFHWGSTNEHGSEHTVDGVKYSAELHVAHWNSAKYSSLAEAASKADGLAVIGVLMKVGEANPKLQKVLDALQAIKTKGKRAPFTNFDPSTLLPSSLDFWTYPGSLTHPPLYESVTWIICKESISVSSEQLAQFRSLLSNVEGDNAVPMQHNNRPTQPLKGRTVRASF

SMILES | Kinact [1] [nM] | Kinact [2] [nM] | Kinact [3] [µM] | Kinact [4] [nM]
Nc1ccc(S(N)(=O)=O)cc1F | 1230 | 1360 | – | –
CCN[C@H]1CN(CCCOC)S(=O)(=O)c2sc(S(N)(=O)=O)cc21 | 210 | 128 | – | –
CC(C)(C)c1ccc(C(=O)Nc2nnc(S(N)(=O)=O)s2)cc1 | 13 | 28 | 0.541 | –
Cn1nc(S(N)(=O)=O)sc1=N | 549 | 768 | – | –
Nc1ccc(S(N)(=O)=O)cc1Cl | 378 | 1460 | – | –
CC(C)(C)c1ccc(C(=O)Nc2cccc(S(N)(=O)=O)c2)cc1 | 316 | 241 | 10.8 | –
Nc1ccc(S(N)(=O)=O)cc1I | 510 | 1150 | 6 | –
Nc1ccc(S(=O)(=O)NCCc2ccc(S(N)(=O)=O)cc2)cc1 | 114 | 71 | – | –
Nc1ccc(S(N)(=O)=O)cc1Br | 452 | 1240 | – | –
CC(C)(C)c1ccc(S(=O)(=O)Nc2cccc(S(N)(=O)=O)c2)cc1 | 318 | 213 | 9.62 | –
Nc1ccc(S(=O)(=O)Nc2nnc(S(N)(=O)=O)s2)cc1 | 268 | 64 | – | –
NS(=O)(=O)c1nnc(-c2ccccc2Cl)s1 | – | 37 | 0.69 | –
NS(=O)(=O)c1ccc(C(=O)O)cc1 | 1050 | 450 | – | –
NS(=O)(=O)c1ccc(CO)cc1 | 876 | 236 | – | –
Nc1ccc(S(=O)(=O)NCc2ccc(S(N)(=O)=O)cc2)cc1 | 131 | 87 | – | –
NNc1ccc(S(N)(=O)=O)cc1 | – | 8650 | 28 | –
CC(C)(C)c1ccc(S(=O)(=O)Nc2ccc(S(N)(=O)=O)cc2)cc1 | 60 | 150 | 13 | –
CC(C)(C)c1ccc(C(=O)Nc2ccc(S(N)(=O)=O)cc2)cc1 | 79 | 158 | 14.2 | –
Nc1ccccc1S(N)(=O)=O | 426 | 16400 | – | –
NCc1ccc(S(N)(=O)=O)cc1 | 873 | 2360 | – | –
CC(C)(C)c1ccc(S(=O)(=O)Nc2nnc(S(N)(=O)=O)s2)cc1 | 12 | 24 | 0.338 | –
CC(C)(C)c1ccc(S(=O)(=O)NCCc2ccc(S(N)(=O)=O)cc2)cc1 | 27 | 45 | 12 | 94
CC(C)(C)c1ccc(S(=O)(=O)NCc2ccc(S(N)(=O)=O)cc2)cc1 | 31 | 96 | 12.2 | 104
CC(C)(C)c1ccc(S(=O)(=O)Nc2ccccc2S(N)(=O)=O)cc1 | 640 | 24800 | 14.7 | 295
CC(C)(C)c1ccc(C(=O)NCCc2ccc(S(N)(=O)=O)cc2)cc1 | 62 | 44 | 13.3 | 127
CC(C)(C)c1ccc(C(=O)Nc2ccccc2S(N)(=O)=O)cc1 | 539 | 23500 | 12.3 | –
CC(C)(C)c1ccc(C(=O)NCc2ccc(S(N)(=O)=O)cc2)cc1 | 539 | 101 | 12.3 | 241
CC(=O)/N=c1/sc(S(N)(=O)=O)nn1C | 225 | 176 | – | –
Nc1nccc(Nc2ccc(S(N)(=O)=O)cc2)n1 | 84 | 38 | – | –
Cc1ccc(S(N)(=O)=O)cc1 | 430 | 2470 | 78.5 | –
